Source: US20240100038A1, “USE OF THE AXL INHIBITOR SLC-391 AS ANTIVIRAL THERAPEUTIC AGENT” (SignalChem Lifesciences Corporation, priority 2021, published 2024)
Like-named read-outs stand apart in the source and are kept apart here.

What was measured:
ZEB1 = conditions: Stewart 2020; cited from earlier work
Ebola virus = conditions: animal models (Dowall 2016); cited from earlier work
SARS-CoV-2 [1] = conditions: cited from earlier work
MER [2] = conditions: cultured cell assays; cited from earlier work
[3] = test system: virus infection of wild type bone marrow-derived dendritic cells; conditions: wild type bone marrow-derived dendritic cells (Bhattacharyya 2013); cited from earlier work
AXL [4] = conditions: cultured cell assays; cited from earlier work
hERG = hERG (Homo sapiens, UniProt Q12809); test: Standard hERG assay; assay type: biochemical
[5] = test system: SARS-CoV-2 spike protein binding to ACE2; assay type: cell-based, SARS-CoV-2 / human; conditions: 1 μM, CHO-hACE2 cells, luciferase
[6] = Phase I study in subjects with solid tumors (SLC-391-101); conditions: clinical drug product, oral
VEGFR1 = target: T1, VEGFR1 (Homo sapiens, UniProt P17948); test: In vitro BaF3 cell assay, panel of 93 receptor tyrosine kinases; assay type: cell-based; conditions: at 100 nM
T1 construct: expressed in transfected cells; host or cells: BaF3

A549 cell invasion = test: Cell invasion; assay type: cell-based; conditions: Homo sapiens
phosphorylated Akt = test: Phosphorylated Akt in tumor xenograft samples; assay type: in vivo; conditions: oral administration
Excerpt: (§1) Significant in vivo pharmacology studies for SLC-391 have been completed in support of its oncology indication. The bioavailability of SLC-391 in vivo when administered orally (PO) (twice-daily [BID] and once-daily [QD]) were studied.

MER [7] = target: T2, MER (Homo sapiens, UniProt Q12866); test: MER kinase inhibition; assay type: biochemical
Excerpt: (§2) The selectivity of SLC-391 was further evaluated against a panel of 320 protein kinases from the human kinome using a radiometric phosphotransferase assay.

A549 = test: Cell migration; assay type: cell-based, human; conditions: at 1 μM
TYRO3 = TYRO3 (Homo sapiens, UniProt Q06418); test: TYRO3 kinase inhibition; assay type: biochemical
Excerpt: as §2

[8] = test system: human influenza virus (FluAPR834); conditions: Flu A, RPMI2650 cells
in vitro [9] = conditions: human
A549 cells = test: Anchorage-independent cell proliferation; assay type: cell-based, human; conditions: at 1 μM in A549 cells
[10] = 28-day oral gavage GLP toxicology study in Beagle dogs
[11] = test system: human influenza virus (FluAPR834); test: microbe, parasite or virus in culture; conditions: unidentified influenza virus, RPMI-2650, in Homo sapiens, 96 h, read-out: EC50 (inhibit CPE by 50%)
MER [12] = target: T2, MER; test: In vitro BaF3 cell assay, panel of 93 receptor tyrosine kinases; assay type: cell-based; set-up: expressed in transfected cells; host or cells: BaF3; conditions: at 100 nM
SARS-CoV-2 [13] = assay type: cell-based; conditions: Vero E6 cells
influenza virus (Flu A) = assay type: cell-based; conditions: for Fold of virus reduction: compared with virus control
ALK1 = ALK1 (Homo sapiens, UniProt P37023); test: Radiometric phosphotransferase assay, panel of 320 protein kinases; assay type: biochemical
Excerpt: as §2

Aurora C = Aurora C (Homo sapiens, UniProt Q9UQB9); test: as above; assay type: biochemical
Excerpt: as §2

RET = RET (Homo sapiens, UniProt P07949); test: as above; assay type: biochemical
Excerpt: as §2

c-MET = c-MET (Homo sapiens, UniProt P08581); test: as above; assay type: biochemical
Excerpt: as §2

NUAK1 = NUAK1 (Homo sapiens, UniProt O60285); test: as above; assay type: biochemical
Excerpt: as §2

EPHA6 = EPHA6 (Homo sapiens, UniProt Q9UF33); test: as above; assay type: biochemical
Excerpt: as §2

ROS1 = ROS1 (Homo sapiens, UniProt P08922); test: as above; assay type: biochemical
Excerpt: as §2

[14] = in vivo, po
AXL [15] = target: T3, AXL (Homo sapiens, UniProt P30530); test: In vitro BaF3 cell assay, panel of 93 receptor tyrosine kinases; assay type: cell-based; set-up: expressed in transfected cells; host or cells: BaF3; conditions: at 100 nM
in vivo = conditions: both, Sprague-Dawley, rat
K562 = test: Cellular proliferation, K562; assay type: cell-based; conditions: Homo sapiens
4T1 = test: Cellular proliferation, 4T1; assay type: cell-based; conditions: Mus musculus
tumor growth = test: In vivo tumor growth inhibition, oral administration
Excerpt: as §1

in vitro [16] = conditions: human; remark: listed apart in the source
[17] = test system: Salmonella tester strain TA98; test: Ames screening test, TA98; assay type: cell-based; conditions: TA98, with and without liver S9 metabolic activation
Excerpt: (§3) In genotoxicity screening studies, SLC-391 was negative in Salmonella tester strains TA98 and TA100 (Ames screening test) with and without liver S9 metabolic activation.

AXL [18] = target: T3, AXL; test: AXL kinase inhibition; assay type: biochemical
Excerpt: as §2

[19] = Flowscreen genotoxicity assay; assay type: cell-based
FGFR3 = target: T4, FGFR3 (Homo sapiens, UniProt P22607); test: In vitro BaF3 cell assay, panel of 93 receptor tyrosine kinases; assay type: cell-based; conditions: at 100 nM
T4 construct: expressed in transfected cells; host or cells: BaF3

[20] = test system: Salmonella tester strain TA100; test: Ames screening test, TA100; assay type: cell-based; conditions: TA100, with and without liver S9 metabolic activation
Excerpt: as §3

[21] = In vivo rat micronucleus assay; conditions: 70 mg/kg/day (highest dose)
[22] = test system: Gas6-induced phosphorylation of Akt; test: Inhibition of Gas6-induced phosphorylation of Akt in A549; assay type: cell-based; conditions: human NSCLC cell line A549
[23] = 28-day oral gavage GLP toxicology study in Sprague-Dawley rats
[24] = 28-day oral gavage, Beagle dogs

T2 sequence (Q12866 21-999): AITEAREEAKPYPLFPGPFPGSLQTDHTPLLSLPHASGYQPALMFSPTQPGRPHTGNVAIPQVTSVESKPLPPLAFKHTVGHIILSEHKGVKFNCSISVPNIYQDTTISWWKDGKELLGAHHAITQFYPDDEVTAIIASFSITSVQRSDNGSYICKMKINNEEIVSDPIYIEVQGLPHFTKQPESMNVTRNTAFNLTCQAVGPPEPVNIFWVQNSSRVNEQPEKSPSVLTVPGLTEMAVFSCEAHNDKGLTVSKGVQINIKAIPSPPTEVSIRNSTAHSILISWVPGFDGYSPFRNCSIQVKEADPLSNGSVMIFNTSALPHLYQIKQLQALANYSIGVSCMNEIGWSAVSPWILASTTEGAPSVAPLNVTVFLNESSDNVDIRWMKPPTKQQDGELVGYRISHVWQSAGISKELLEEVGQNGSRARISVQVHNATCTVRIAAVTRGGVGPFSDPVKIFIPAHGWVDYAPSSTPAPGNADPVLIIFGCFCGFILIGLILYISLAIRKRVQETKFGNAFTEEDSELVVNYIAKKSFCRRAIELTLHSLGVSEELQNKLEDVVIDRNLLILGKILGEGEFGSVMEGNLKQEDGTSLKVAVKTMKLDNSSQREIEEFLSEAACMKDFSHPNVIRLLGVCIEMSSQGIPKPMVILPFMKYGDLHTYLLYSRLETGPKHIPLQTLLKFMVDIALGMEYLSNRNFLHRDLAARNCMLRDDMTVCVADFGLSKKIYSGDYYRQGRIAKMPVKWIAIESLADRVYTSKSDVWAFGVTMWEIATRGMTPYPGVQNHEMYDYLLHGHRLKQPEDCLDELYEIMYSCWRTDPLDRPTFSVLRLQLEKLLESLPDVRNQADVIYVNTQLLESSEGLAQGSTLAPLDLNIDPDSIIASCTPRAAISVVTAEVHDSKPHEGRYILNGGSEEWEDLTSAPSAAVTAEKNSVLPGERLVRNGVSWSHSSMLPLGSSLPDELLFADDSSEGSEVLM
T3 sequence (P30530 26-894): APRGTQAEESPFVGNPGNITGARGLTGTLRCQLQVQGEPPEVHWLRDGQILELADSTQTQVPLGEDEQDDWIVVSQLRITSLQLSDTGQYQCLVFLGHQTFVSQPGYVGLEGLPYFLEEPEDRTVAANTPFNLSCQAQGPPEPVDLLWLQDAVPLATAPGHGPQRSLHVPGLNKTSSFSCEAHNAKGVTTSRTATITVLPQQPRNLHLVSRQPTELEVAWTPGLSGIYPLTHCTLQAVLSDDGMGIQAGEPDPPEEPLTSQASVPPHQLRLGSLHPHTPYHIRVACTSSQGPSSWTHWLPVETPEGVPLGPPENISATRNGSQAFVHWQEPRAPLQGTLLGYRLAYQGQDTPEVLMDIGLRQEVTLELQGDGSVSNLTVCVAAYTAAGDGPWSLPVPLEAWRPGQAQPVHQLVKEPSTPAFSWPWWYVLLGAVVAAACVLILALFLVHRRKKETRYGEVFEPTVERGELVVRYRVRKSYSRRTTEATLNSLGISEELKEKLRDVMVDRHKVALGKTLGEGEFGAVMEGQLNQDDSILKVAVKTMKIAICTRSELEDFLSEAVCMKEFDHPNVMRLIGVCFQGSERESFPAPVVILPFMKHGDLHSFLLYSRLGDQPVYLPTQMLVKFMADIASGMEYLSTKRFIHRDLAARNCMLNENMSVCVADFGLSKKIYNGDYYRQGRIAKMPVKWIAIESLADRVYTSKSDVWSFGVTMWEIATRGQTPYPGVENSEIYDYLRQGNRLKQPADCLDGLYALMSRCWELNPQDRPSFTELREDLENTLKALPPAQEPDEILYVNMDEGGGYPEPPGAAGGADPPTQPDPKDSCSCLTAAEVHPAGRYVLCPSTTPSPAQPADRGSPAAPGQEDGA
RET, sequence (P07949 29-1114): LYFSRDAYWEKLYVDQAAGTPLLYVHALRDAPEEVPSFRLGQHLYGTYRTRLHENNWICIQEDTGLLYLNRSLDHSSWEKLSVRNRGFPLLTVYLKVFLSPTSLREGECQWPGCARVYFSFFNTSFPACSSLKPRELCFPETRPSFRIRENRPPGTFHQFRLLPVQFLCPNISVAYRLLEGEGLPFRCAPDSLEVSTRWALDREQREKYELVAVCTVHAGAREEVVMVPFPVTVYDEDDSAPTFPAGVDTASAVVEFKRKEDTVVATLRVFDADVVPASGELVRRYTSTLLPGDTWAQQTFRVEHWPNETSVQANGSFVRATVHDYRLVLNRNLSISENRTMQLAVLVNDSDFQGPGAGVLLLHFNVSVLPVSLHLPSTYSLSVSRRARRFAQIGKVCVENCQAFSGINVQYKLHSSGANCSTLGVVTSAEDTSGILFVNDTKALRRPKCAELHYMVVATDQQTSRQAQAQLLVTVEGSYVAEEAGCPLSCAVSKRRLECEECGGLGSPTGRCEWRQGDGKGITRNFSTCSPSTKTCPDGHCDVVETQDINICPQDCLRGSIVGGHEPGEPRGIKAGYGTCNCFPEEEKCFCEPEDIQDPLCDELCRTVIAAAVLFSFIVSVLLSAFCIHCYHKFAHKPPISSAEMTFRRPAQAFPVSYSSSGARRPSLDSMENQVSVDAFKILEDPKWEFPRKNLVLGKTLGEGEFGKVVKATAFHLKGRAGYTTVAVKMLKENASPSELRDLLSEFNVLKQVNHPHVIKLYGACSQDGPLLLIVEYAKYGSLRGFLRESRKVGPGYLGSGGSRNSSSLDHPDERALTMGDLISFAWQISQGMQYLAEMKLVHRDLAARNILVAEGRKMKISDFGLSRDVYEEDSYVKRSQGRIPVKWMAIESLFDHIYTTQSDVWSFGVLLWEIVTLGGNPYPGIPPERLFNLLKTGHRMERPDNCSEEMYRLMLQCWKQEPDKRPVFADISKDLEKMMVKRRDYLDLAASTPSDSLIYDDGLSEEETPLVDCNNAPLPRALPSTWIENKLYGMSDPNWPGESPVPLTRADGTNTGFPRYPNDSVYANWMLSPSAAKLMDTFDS
T4 sequence (P22607 23-806, species assumed): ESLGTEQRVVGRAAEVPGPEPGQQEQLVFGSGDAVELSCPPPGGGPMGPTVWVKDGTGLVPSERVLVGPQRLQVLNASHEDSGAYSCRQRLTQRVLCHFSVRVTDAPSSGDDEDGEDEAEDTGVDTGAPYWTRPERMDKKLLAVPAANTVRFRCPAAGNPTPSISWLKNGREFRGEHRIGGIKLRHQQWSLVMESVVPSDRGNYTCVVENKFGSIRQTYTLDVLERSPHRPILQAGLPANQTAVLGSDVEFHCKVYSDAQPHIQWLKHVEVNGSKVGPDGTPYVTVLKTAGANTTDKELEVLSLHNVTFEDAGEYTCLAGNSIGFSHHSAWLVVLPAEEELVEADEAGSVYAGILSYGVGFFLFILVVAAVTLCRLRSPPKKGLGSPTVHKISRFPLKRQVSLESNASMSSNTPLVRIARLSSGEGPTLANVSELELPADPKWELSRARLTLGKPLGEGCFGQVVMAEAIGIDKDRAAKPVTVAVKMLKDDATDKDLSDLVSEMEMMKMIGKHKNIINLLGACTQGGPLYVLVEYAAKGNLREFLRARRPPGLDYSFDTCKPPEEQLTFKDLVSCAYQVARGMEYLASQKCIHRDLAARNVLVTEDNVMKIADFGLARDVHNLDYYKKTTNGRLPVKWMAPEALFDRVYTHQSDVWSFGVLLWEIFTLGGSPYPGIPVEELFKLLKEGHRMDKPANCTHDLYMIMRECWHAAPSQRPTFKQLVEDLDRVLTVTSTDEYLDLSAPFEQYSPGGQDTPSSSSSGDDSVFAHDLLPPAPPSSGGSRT
Aurora C, sequence (Q9UQB9 whole entry): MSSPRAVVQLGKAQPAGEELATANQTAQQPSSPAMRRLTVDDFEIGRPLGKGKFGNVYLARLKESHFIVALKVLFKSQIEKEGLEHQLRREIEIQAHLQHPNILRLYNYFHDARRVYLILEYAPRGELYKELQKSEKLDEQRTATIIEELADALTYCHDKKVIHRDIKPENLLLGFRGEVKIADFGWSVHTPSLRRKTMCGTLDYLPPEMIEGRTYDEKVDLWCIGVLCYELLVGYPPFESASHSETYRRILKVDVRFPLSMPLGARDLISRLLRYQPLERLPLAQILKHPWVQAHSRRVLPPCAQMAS
NUAK1, sequence (O60285 whole entry): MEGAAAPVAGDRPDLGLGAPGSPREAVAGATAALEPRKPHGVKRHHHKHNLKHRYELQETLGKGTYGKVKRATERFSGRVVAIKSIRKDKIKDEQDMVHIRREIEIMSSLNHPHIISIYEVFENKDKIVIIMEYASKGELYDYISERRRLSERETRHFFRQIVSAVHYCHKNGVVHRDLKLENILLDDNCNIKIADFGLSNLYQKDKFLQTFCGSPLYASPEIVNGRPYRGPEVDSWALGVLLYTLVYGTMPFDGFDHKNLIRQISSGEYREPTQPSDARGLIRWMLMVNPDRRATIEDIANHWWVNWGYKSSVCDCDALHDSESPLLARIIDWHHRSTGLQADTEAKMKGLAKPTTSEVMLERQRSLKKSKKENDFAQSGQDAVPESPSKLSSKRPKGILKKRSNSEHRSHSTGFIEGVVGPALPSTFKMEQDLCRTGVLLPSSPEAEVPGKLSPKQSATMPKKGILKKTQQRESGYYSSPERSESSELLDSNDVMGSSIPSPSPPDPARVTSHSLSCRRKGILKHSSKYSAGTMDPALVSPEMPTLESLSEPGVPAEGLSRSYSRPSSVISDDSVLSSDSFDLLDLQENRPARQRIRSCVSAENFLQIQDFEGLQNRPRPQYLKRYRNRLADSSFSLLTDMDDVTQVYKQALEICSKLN
ALK1, sequence (P37023 142-503 limits assumed): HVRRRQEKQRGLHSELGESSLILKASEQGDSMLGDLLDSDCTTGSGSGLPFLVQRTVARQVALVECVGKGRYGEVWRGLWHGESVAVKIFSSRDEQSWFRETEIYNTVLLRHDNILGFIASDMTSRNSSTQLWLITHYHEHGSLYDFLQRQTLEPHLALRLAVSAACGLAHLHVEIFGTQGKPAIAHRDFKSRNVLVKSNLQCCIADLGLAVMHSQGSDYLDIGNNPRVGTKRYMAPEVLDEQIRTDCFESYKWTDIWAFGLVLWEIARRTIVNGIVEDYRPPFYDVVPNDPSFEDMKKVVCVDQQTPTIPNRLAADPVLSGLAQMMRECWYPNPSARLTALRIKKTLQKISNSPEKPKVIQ

## Nc1nc(Nc2ccc3c(c2)CC[C@@H](N2CCCC2)CC3)nn1-c1cc2c(nn1)-c1ccccc1CCC2 [BGB324]
ZEB1
  effect on ZEB1: downregulates ZEB1
Ebola virus
  effect against lethal Ebola virus infection: had effect against lethal Ebola virus infection
SARS-CoV-2 [1]; preliminary in vitro studies
  protection from SARS-CoV-2-induced cytopathic effect: protect cells from SARS-CoV-2-induced cytopathic effect
SARS-CoV-2 [1]; subsequent studies
  inhibition of SARS-CoV-2 infection of cells: potently inhibit SARS-CoV-2 infection of cells

## CCOc1ccn(-c2ccc(F)cc2)c(=O)c1C(=O)Nc1ccc(Oc2ccnc(N)c2Cl)c(F)c1 [BMS-777607]
MER [2]
  concentrations effectively blocking Gas6-triggered receptor activation: 30 to 3600 nM
[3]
  susceptibility of treated dendritic cells to virus infection: much less susceptible to virus infection than untreated cells
AXL [4]
  concentrations effectively blocking Gas6-triggered receptor activation: 30 to 3600 nM

## Nc1ncc(-c2cnn(C3CCNCC3)c2)cc1-c1nnc(CC2CC2)o1 [SLC-391, 3-(5-(cyclopropylmethyl)-1,3,4-oxadiazol-2-yl)-5-(1-(piperidin-4-yl)-1H-pyrazol-4-yl)pyridin-2-amine]
hERG
  IC50: > 30000 nM
[5]
  neutralization of SARS-CoV-2 pseudovirus: completely neutralize
[6]
  tolerability in human subjects: well tolerated
VEGFR1
  inhibition at 0.1 µM: 64%
A549 cell invasion
  inhibition at 0.2 µM: ~75%
Phosphorylated Akt
  reduction in levels of phosphorylated Akt: 41%
MER [7]
  IC50: 63.5 nM
A549
  reduction of cell migration: less than 40%
TYRO3
  IC50: 42.3 nM
[8]
  therapeutic index (TI), TC50 divided by EC50: above 71.4
In vitro [9]
  CC50: > 10000 nM
A549 cells
  impairment of anchorage-independent cell proliferation: complete inhibition
[10]; 28-day dog GLP toxicology study, as defined in ICH S9
  HNSTD: 6 mg/kg/day
[10]; [24]
  effects on heart rate (HR): no effects
  effects on respiratory parameters: no SLC-391-related effects
[10]; 28-day oral gavage, Beagle dogs, males and females
  effects on morphology of P-QRS-T complexes, PR interval, QT, QTc intervals, QRS complex duration: no observable effects
[10]; from 6 mg/kg/day in dog
  human equivalent dose (HED) of dog HNSTD: 3.3 mg/kg
[11]
  EC50: 140 nM
MER [12]
  inhibition at 0.1 µM: 61%
SARS-CoV-2 [13]; 0.01 μM, for 24 hours
  inhibition of SARS-CoV-2 infection (qPCR cycles): effectively inhibit the viral infection
SARS-CoV-2 [13]; 1 μM, up to 72 hours
  inhibition of SARS-CoV-2 infection (qPCR cycles): high degree of viral inhibition
Influenza virus (Flu A); 0.003 uM
  TCID50/mL: 19999 TCID50/mL
  Fold of virus reduction: 34.8 fold
Influenza virus (Flu A); 0.4 uM
  TCID50/mL: 9290 TCID50/mL
  Fold of virus reduction: 74.9 fold
Influenza virus (Flu A); 10 uM
  TCID50/mL: 731 TCID50/mL
  Fold of virus reduction: 952.9 fold
ALK1
  IC50: 31 nM
Aurora C
  IC50: 51 nM
RET
  IC50: 28 nM
c-MET
  IC50: 12 nM
NUAK1
  IC50: 62 nM
EPHA6
  IC50: 45 nM
ROS1
  IC50: 23 nM
[14]
  exposure in human subjects: excellent exposure
AXL [15]
  inhibition at 0.1 µM: 69%
In vivo
  NOAEL at 28 day: 30 mg/kg/day
K562
  IC50: 3450 nM
4T1
  IC50: 1050 nM
Tumor growth; 50 mg/kg BID
  tumor growth inhibition (TGI): 60%
Tumor growth; 75 mg/kg BID
  tumor growth inhibition (TGI): 67%
In vitro [16]
  viability at 0.003 µM: 100%
  viability at 0.4 µM: 95%
  viability at 10 µM: 80%
[17]
  Ames screening test result: negative
AXL [18]
  IC50: 9.6 nM
[19]
  Flowscreen assay classification: potentially genotoxic with an aneugenic mechanism of action
FGFR3
  inhibition at 0.1 µM: 64%
[20]
  Ames screening test result: negative
[21]
  genotoxic response, rat micronucleus assay: potential genotoxic response was observed
[22]
  IC50: 290 nM
[23]; 28-day rat GLP study, highest dose tested
  severe toxic dose: 70 mg/kg/day
[23]; from 70 mg/kg/day in rat
  human equivalent dose (HED) of rat severe toxic dose: 11.3 mg/kg
